We go through 15 compounds from US4093617A, “3,5,7-Trisubstituted pyrazolo[1,5-a]pyrimidines” (ICN Pharmaceuticals, Inc., priority 1976, dated 1978).

For data set [1], the system named is 3',5'-Cyclic AMP Phosphodiesterase (PDE). The experiment in a line: Inhibition of 3',5'-cyclic AMP phosphodiesterase (PDE) isolated from rabbit kidney, low affinity (Fraction I, high Km). It is filed as biochemical. Conditions: for IC50: cAMP approx. 5 × 10^-4 M.
Data set [2] relates to histamine-induced bronchospasm. Conditions: F. L. Rose et al, J. Chem. Soc.; cited from earlier work.
In the next data set the test system is male Sprague-Dawley rats. Put plainly: Antianxiety activity: stimulation of drinking activity of the rat in a passive avoidance behavioral paradigm. It is filed as in vivo. Conditions: for minimal effective dose: read-out: Dose wherein the first statistically behavioral difference (p<0.05 or less) from the control group occurs; for ED50: read-out: ED50 (dose producing 50% of maximum effect). On the procedure: In Tables V and VI the antianxiety activity of the listed compounds is measured as a function of the compounds ability to stimulate drinking activity of the rat in a passive avoidance behavioral paradigm. For these tests male Sprague-Dawley rats weighing 175 to 200 grams were water deprived for 48 hr. and placed in environmental chambers in which water was available with a punishment contingency. Each accumulated 3 sec. of contact with the drinking tube caused a constant current source (1.2 mA DC) to be applied to the drinking tube for 2 sec. Test sessions were 5 min. in duration, commencing with delivery of the first shock. Twelve rats were treated orally 1 hr. or intraperitoneally 30 min. prior to testing. The tests are scored based on the number of shocks accepted by the treated animals at a specific dose and were compared to twelve saline control animals tested on the same day.
In Table V the activity is expressed as an ED50. The ED50 is the dose of the compound in mg/kg producing 50% of maximum effect and is shown for both oral (p.o.) and interperitoneal (i.p.) routes of administration.
In Table VI the activity is expressed as the dose (i.p.) wherein the first statistically behavioral difference (p<0.05 or less) from the control group occurs. Included for comparison are the commonly prescribed antianxiety drugs, chlordiazepoxide and diazepam.

In a further data set the test system is male Swiss-Webster mice. The experiment in a line: Potentiation of the depressant effects of sodium barbital, loss of the righting reflex in the mouse. It is filed as in vivo. As for the experimental part:
This dose of barbital sodium (100 mg/kg) was then injected i.p. in a group of ten mice. Fifteen min. later the mice were injected i.p. with the dose of compound to be tested. […] Mice were tested at 15 min. intervals for one hour after injection of test compound. Responses were recorded on an all-or-none basis; loss of righting reflex for 5 min. or longer was the effective criteria.

A short description of data set [3]: Potentiation of the depressant effects of ethanol, loss of the righting reflex in the mouse. Conditions: po. On the procedure:
For this test male Swiss-Webster mice weighing 18 to 20 grams were food deprived 18 hours prior to the experiment. […] Drugs were given orally in 20 ml/kg of 1% CMC. Ethanol (5 gm/kg p.o.) was given 30 minutes after drug injection. Immediately after treatment animals were placed in individual clear plastic containers.
The righting reflex was recorded as being present when the animal would voluntarily roll to its side when placed on its back. Animals were tested for righting reflex every 15 minutes.

Data set [4] has as its system 3',5'-Cyclic AMP Phosphodiesterase (PDE). Put plainly: Inhibition of 3',5'-cyclic AMP phosphodiesterase (PDE) isolated from rabbit lung, low affinity (Fraction I, high Km). It counts as biochemical. As to conditions: for IC50: cAMP approx. 5 × 10^-4 M.
Data set [5] relates to 3',5'-Cyclic-AMP phosphodiesterase (PDE). The experiment in a line: Inhibition of PDE from rabbit lung, high affinity (Fraction II, low Km). It counts as biochemical. As to conditions: cAMP 1.6 × 10^-7 M, relative to theophylline.
For data set [6] the test system is unchanged. Put plainly: Inhibition of PDE from beef heart, high affinity (Fraction II, low Km). It counts as biochemical. As to conditions: cAMP 1.6 × 10^-7 M, relative to theophylline.
In a further data set the test system is phosphodiesterase. As to conditions: cited from earlier work.
A further data set concerns central nevous system. As to conditions: in vivo; cited from earlier work.
Where [7] appears, read: i.p., 15 min after sodium barbital 100 mg/kg i.p.
The mark [8] stands for this setting: ip, 0.5 h, i.p., 30 min prior to testing.

Several values for one entry are separate records, joined by “and”; a condition that tells them apart may be missing. Equal entries are not always repeated. Where two headings read alike, the source gives them in different places.

With `CCCc1nc(C)cc2nc(N)nn12` [COMPOUND 1], in data set [1], the “α (relative inhibitory activity as compared with theophylline)” value stood at 0.14. Also, the IC50 in data set [1] (read-out: I50) came to 1600 µM. Further, in data set [2], the “Protection from histamine-induced bronchospasm” value is reported as “capable of protecting animals from histamine-induced bronchospasm”.

Consider `CCOC(=O)c1cnn2c(C)cc(C)nc12` [COOC2 H5], for which the “α (relative inhibitory activity as compared with theophylline)” value in data set [1] was 0.22. Further, in data set [1] (read-out: I50), the IC50 amounted to 1000 µM.

With `CNC1=Nc2ccc(Cl)cc2C(c2ccccc2)=[N+]([O-])C1` [Chlordiazepoxide, chlordiazepoxide, reference compound], the minimal effective dose with male Sprague-Dawley rats (ip, 0.5 h) is 10 mg/kg. For the same compound, the “Dose of compound which produced loss of righting reflex in 50% of treated animals” value in the data set with male Swiss-Webster mice (setting [7]) was determined as 6.4 ± 0.4 mg/kg. For the same compound, in data set [3] (in vivo), the NOAEL was determined as 4 mg/kg.

As to `CN1C(=O)CN=C(c2ccccc2)c2cc(Cl)ccc21` [Diazepam, diazepam, reference compound], in the data set with male Sprague-Dawley rats (ip, 0.5 h), the minimal effective dose was 20 mg/kg. For the same compound, the “Dose of compound which produced loss of righting reflex in 50% of treated animals” value with male Swiss-Webster mice (setting [7]) is reported as 0.5 ± 0.8 mg/kg.

As to `Cc1cc(C)n2ncc(Br)c2n1` [Example I, 3-Bromo-5,7-dimethyl pyrazolo[1,5-a]pyrimidine], the “α (relative inhibitory activity as compared with theophylline)” value in [1] came out at 2.20; in data set [4], 2.4. Further, the IC50 in data set [1] (read-out: I50) amounted to 100 µM; in [4] (read-out: I50) it was 270 µM. In data set [5], the “α Lung” value was determined as 0.7. In addition, in data set [6], the “α Heart” value amounted to 1.7. Further, the ED50 came to 10.5 ± 0.8 mg/kg with male Sprague-Dawley rats (setting [8]) and 9.5 ± 3.5 mg/kg in the data set with male Sprague-Dawley rats (po, 1 hr prior to testing). For the same compound, in the data set with male Sprague-Dawley rats (ip, 0.5 h, i.p.), the minimal effective dose was 10 mg/kg. The “Dose of compound which produced loss of righting reflex in 50% of treated animals” value in the data set on male Swiss-Webster mice (mouse, in vivo, ip) is 61.9 ± 12.1 mg/kg. In data set [3] (mouse), the NOAEL was 400 mg/kg.

With `Cc1cc(C)n2nccc2n1` [H, 5,7-dimethyl pyrazolo[1,5-a]pyrimidine, reference compound], the “α (relative inhibitory activity as compared with theophylline)” value in data set [1] amounted to 0.20; in data set [4] it was 0.32. Besides, the IC50 in data set [1] (read-out: I50) was 800 µM; in data set [4] (read-out: I50) it was 2000 µM. Further, the 50% effective dose (ED50) in the data set with male Sprague-Dawley rats (setting [8]) stood at 20.9 ± 4.6 mg/kg; in the data set with male Sprague-Dawley rats (po, 1 hr prior to testing) it was 43.6 ± 6.1 mg/kg. For the same compound, the minimal effective dose in the data set with male Sprague-Dawley rats (ip, 0.5 h, i.p.) amounted to 40 mg/kg. Moreover, the “Dose of compound which produced loss of righting reflex in 50% of treated animals” value in the data set with male Swiss-Webster mice (mouse, in vivo, ip) was 118.8 ± 15.7 mg/kg. Further, in data set [3] (mouse), the NOAEL stood at 300 mg/kg.

In the case of `Cc1cc(C)n2ncc(Cl)c2n1` [II, 3-Chloro-5,7-dimethyl pyrazolo[1,5-a]pyrimidine], the “α (relative inhibitory activity as compared with theophylline)” value stood at 1.33 in data set [1] and 3.1 in data set [4]. Further, the IC50 in data set [1] (read-out: I50) stood at 240 µM; in data set [4] (read-out: I50), 210 µM. Besides, the “α Lung” value in data set [5] is given as 2.2. The “α Heart” value in data set [6] turned out to be 1.7. Moreover, the 50% effective dose (ED50) in the data set on male Sprague-Dawley rats (setting [8]) was 2.4 ± 4.3 mg/kg; with male Sprague-Dawley rats (po, 1 hr prior to testing), 7.8 ± 4.5 mg/kg. The minimal effective dose with male Sprague-Dawley rats (ip, 0.5 h, i.p.) amounted to 10 mg/kg. For the same compound, the “Dose of compound which produced loss of righting reflex in 50% of treated animals” value with male Swiss-Webster mice (mouse, in vivo, ip) was 60.9 ± 20.8 mg/kg. Moreover, the no observed adverse effect level (NOAEL) in data set [3] (mouse) was found to be 200 mg/kg.

Consider `Cc1cc(C)n2ncc(I)c2n1` [III, 5,7-Dimethyl 3-iodo pyrazolo[1,5-a]pyrimidine], for which the “α (relative inhibitory activity as compared with theophylline)” value in data set [1] is 1.23; in data set [4] it was 3.5. The IC50 in data set [1] (read-out: I50) is 130 µM; in data set [4] (read-out: I50) it was 210 µM. In addition, the “α Lung” value in data set [5] was 3.5. The “α Heart” value in data set [6] amounted to 1.5. Moreover, the ED50 with male Sprague-Dawley rats (setting [8]) came to 10.1 ± 6.8 mg/kg; in the data set with male Sprague-Dawley rats (po, 1 hr prior to testing), 95.9 ± 11.7 mg/kg. Besides, the minimal effective dose in the data set with male Sprague-Dawley rats (ip, 0.5 h, i.p.) was found to be 20 mg/kg. In addition, the “Dose of compound which produced loss of righting reflex in 50% of treated animals” value in the data set on male Swiss-Webster mice (mouse, in vivo, ip) was 142.8 ± 10.1 mg/kg. The compound also displayed an NOAEL in data set [3] (mouse) of 200 mg/kg.

`Cc1cc(C)n2ncc(F)c2n1` [IV, 5,7-Dimethyl 3-fluoro pyrazolo[1,5-a]pyrimidine]: the ED50 with male Sprague-Dawley rats (setting [8]) is 40.7 ± 11.9 mg/kg; in the data set with male Sprague-Dawley rats (po, 1 hr prior to testing), 76.2 ± 10.8 mg/kg. The minimal effective dose in the data set on male Sprague-Dawley rats (ip, 0.5 h, i.p.) was found to be 40 mg/kg. In addition, the “Dose of compound which produced loss of righting reflex in 50% of treated animals” value in the data set on male Swiss-Webster mice (mouse, in vivo, ip) is listed as 148.5 ± 4.5 mg/kg. In data set [3] (mouse), this compound displayed an NOAEL of 100 mg/kg.

Take `CCc1cc(C)nc2c(Br)cnn12` [XIV, 3-Bromo-7-ethyl-5-methylpyrazolo[1,5-a]pyrimidine]: the “α Lung” value in data set [5] worked out at 7.5. In [6], the “α Heart” value was 4.0.

Consider `CCCc1cc(C)nc2c(Br)cnn12` [XV, 3-Bromo-5-methyl-7-n-propylpyrazolo[1,5-a]pyrimidine], for which the “α Lung” value in data set [5] was 7.5. The “α Heart” value in data set [6] stood at 6.5.

As for `CCc1cc(CC)n2ncc(Br)c2n1` [XVI, 3-Bromo-5,7-diethylpyrazolo[1,5-a]pyrimidine], the “α Lung” value in data set [5] is reported as 7.4. Moreover, the “α Heart” value in data set [6] was determined as 6.0.

Consider `CCCc1cc(CCC)n2ncc(Br)c2n1` [XVII, 3-Bromo-5,7-di-n-propylpyrazolo[1,5-a]pyrimidine], for which the “α Lung” value in data set [5] was determined as 5.5. Besides, the “α Heart” value in [6] turned out to be 3.0.

For the compound `CCCc1nc(C)cn2c(N)nnc12` [compound 2], in data set [2], the “Protection from histamine-induced bronchospasm” value is reported as “capable of protecting animals from histamine-induced bronchospasm”.

For the compound `Cn1c(=O)c2[nH]cnc2n(C)c1=O` [theophylline], the IC50 in [1] (theophylline reference run of each compound line, read-out: I50 (theophylline)) was 160 µM and 220 µM and 320 µM. Also, the IC50 in data set [4] (theophylline reference run of each compound line, read-out: I50 (Theophylline)) is 640 µM and 740 µM. In addition, the “Selectivity of phosphodiesterase inhibition” value in the data set with phosphodiesterase is listed as “does not selectively inhibit phosphodiesterase”. Moreover, in the data set on central nevous system, the Cardiovascular effects entry was “rapid beating” and the “Central nervous system effect” value is given as “gives general stimulation to the central nevous system”.
